Experimental data as given in PubChem BioAssay AID1845199 (Molecular Pharmacology Branch, DTP, NCI, 2023).
Several values for one entry are separate records, joined by “and”; a condition that tells them apart may be missing. Equal entries are not always repeated.

Tested on: 556581-035-R-J1 tumor spheroid viability, % test/control
Experiment: Anticancer human tumor 556581-035-R-J1 patient-derived ovarian carcinoma cell line growth inhibition
Settings: spheroids with HUVEC and MSC; for viability, T/C: stronger effect = lower value
From the text: Multicellular complex tumor spheroid response to DNA repair inhibitors in combination with DNA-damaging drugs
This study explores the anticancer activities of DNA-damaging drugs and inhibitors of DNA damage repair, both as single agents and in combinations. Complex tumor spheroids comprised of malignant cells, endothelial cells and mesenchymal stem cells served as an in vitro model for human solid tumors. This model system incorporates physiologically relevant features and patient-derived or established malignant cell lines with clinically relevant genetic alterations from many tumor types. Twenty-six patient-derived or established malignant cell lines were evaluated representing sarcoma, melanoma, small cell lung cancer (SCLC), non-small cell lung cancer (NSCLC), as well as bladder, ovarian and pancreatic cancers. The concentration ranges selected for each drug and investigational agent were based upon clinically achievable concentrations if the clinical Cmax of the agent was known.
Compounds. The drugs and compounds olaparib (NSC753686), talazoparib (NSC767125), berzosertib (NSC777718), elimusertib (NSC800525), nedisertib (NSC802822), VX-984 (NSC792969), AZD-1390 (NSC803789), temozolomide (NSC362856), topotecan (NSC609699), trabectedin (NSC813783), staurosporine (NSC755774), and gemcitabine (NSC613327) were obtained from the National Cancer Institute (NCI) Developmental Therapeutics Program Chemical Repository. The FDA-approved anticancer drug set is available from the Developmental Therapeutics Program at https://dtp.cancer.gov/organization/dscb/obtaining/available_plates.htm. […] The stock solutions were prepared in dimethyl sulfoxide (DMSO, Sigma-Aldrich, St. Louis, MO, cat. D2650) at 400-fold the tested concentration and stored at -70 degrees C. Prior to their use, the stock solutions were diluted in fresh medium and the final DMSO concentration in the assay was 0.25% (v/v). All drugs and investigational agents were tested over a range starting from a high concentration at or near the clinical Cmax and decreasing in half-log increments. If the clinical Cmax for an agent had not been determined, the highest concentration tested was 10 microM.
Cell Lines. The patient-derived cancer cell (PDC) lines: 156681-154-R-J1-PDC, 283228-195-R-J1-PDC, 287954-098-R-J1-PDC, 292921-168-R-J2-PDC, 349418-098-R-PDC, 425362-245-T-J1-PDC, 556581-035-R-J1-PDC, and BL0293-F563-PDC were received from the NCI Patient-Derived Models Repository (PDMR, https://pdmr.cancer.gov). The established cell lines HS-SY-2 (RRID:CVCL_8719), MPNST, and SYO-1 (RRID:CVCL_7146) were obtained from the Sloan Kettering Institute. The alveolar soft parts sarcoma cell line ASPS-1 (RRID:CVCL_S738) was established at the NCI and grown from internal seed stocks. The following established cell lines were purchased from the American Type Culture Collection (ATCC, Manassas, VA): G-401 (ATCC, cat. CRL-1441, RRID:CVCL_0270), SW982 (ATCC, cat. HTB-93, RRID:CVCL_1734), VA-ES-BJ (ATCC, cat. CRL-2138, RRID:CVCL_1785), NCI-H719 (ATCC, cat. CRL-5837, RRID:CVCL_1582), NCI-H196 (ATCC, cat. CRL-5823, RRID:CVCL_1509), NCI-H841 (ATCC, cat. CRL-5845, RRID:CVCL_1595), NCI-H1618 (ATCC, cat. CRL-5879, RRID:CVCL_1480), NCI-H1876 (ATCC, cat. CRL-5902, RRID:CVCL_1503), DMS 114 (ATCC, cat. CRL-2066; RRID:CVCL_1174), NCI-H211 (ATCC, cat. CRL-5824; RRID:CVCL_1529), and SW 1271 (ATCC, cat. CRL-2177, RRID:CVCL_1716). The small cell lung cancer cell line COR-L88 was purchased from Sigma-Aldrich (cat. 92031917-1VL, RRID:CVCL_1141). The non-small cell lung cancer cell lines NCI-H226 (RRID:CVCL_1544) and NCI-H322M (RRID:CVCL_1557) were established at the NCI and grown from internal seed stocks. Pooled donor human umbilical vein endothelial cells (HUVEC, Lonza, cat. CC-2519) and human mesenchymal stem cells (hMSC, Lonza, cat. PT-2501) were purchased from Lonza (Walkersville, MD).
Cell Culture. All cells were maintained in an incubator at 37 degrees C and 5% CO2 with 95% humidity. […]
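Also: spheroids exposed to compounds for 7 days before viability read.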

COc1cc(C)[nH]c(=O)c1CN1CCc2c(Cl)cc(C(OC)C3COC3)c(Cl)c2C1=O (configuration not stated) + Cn1nnc2c(C(N)=O)ncn2c1=O
IC50 (curve of first compound, second compound 1 µM): > 10 µM
IC50 (curve of first compound, second compound 3.16 µM): > 10 µM
IC50 (curve of first compound, second compound 10 µM): > 10 µM
IC50 (curve of first compound, second compound 31.6 µM): > 10 µM
IC50 (curve of first compound, second compound 100 µM): > 10 µM
viability, T/C (second compound 1 µM, first compound 0.0316 µM): 105%
viability, T/C (second compound 1 µM, first compound 0.1 µM): 102%
viability, T/C (second compound 1 µM, first compound 0.316 µM): 117%
viability, T/C (second compound 1 µM, first compound 1 µM): 109%
viability, T/C (second compound 1 µM, first compound 3.16 µM): 107%
viability, T/C (second compound 1 µM, first compound 10 µM): 102%
viability, T/C (second compound 3.16 µM, first compound 0.0316 µM): 99.3%
viability, T/C (second compound 3.16 µM, first compound 0.1 µM): 113%
viability, T/C (second compound 3.16 µM, first compound 0.316 µM): 100%
viability, T/C (second compound 3.16 µM, first compound 1 µM): 107%
viability, T/C (second compound 3.16 µM, first compound 3.16 µM): 105%
viability, T/C (second compound 3.16 µM, first compound 10 µM): 105%
viability, T/C (second compound 10 µM, first compound 0.0316 µM): 105%
viability, T/C (second compound 10 µM, first compound 0.1 µM): 106%
viability, T/C (second compound 10 µM, first compound 0.316 µM): 106%
viability, T/C (second compound 10 µM, first compound 1 µM): 112%
viability, T/C (second compound 10 µM, first compound 3.16 µM): 111%
viability, T/C (second compound 10 µM, first compound 10 µM): 104%
viability, T/C (second compound 31.6 µM, first compound 0.0316 µM): 115%
viability, T/C (second compound 31.6 µM, first compound 0.1 µM): 118%
viability, T/C (second compound 31.6 µM, first compound 0.316 µM): 110%
viability, T/C (second compound 31.6 µM, first compound 1 µM): 107%
viability, T/C (second compound 31.6 µM, first compound 3.16 µM): 108%
viability, T/C (second compound 31.6 µM, first compound 10 µM): 108%
viability, T/C (second compound 100 µM, first compound 0.0316 µM): 112%
viability, T/C (second compound 100 µM, first compound 0.1 µM): 107%
viability, T/C (second compound 100 µM, first compound 0.316 µM): 106%
viability, T/C (second compound 100 µM, first compound 1 µM): 115%
viability, T/C (second compound 100 µM, first compound 3.16 µM): 114%
viability, T/C (second compound 100 µM, first compound 10 µM): 103%

CC(C)n1c(=O)n(C)c2cnc3cc(F)c(-c4ccc(OCCCN5CCCCC5)nc4)cc3c21
viability, T/C (compound 0.0316 µM): 104% and 103% and 102%
viability, T/C (compound 0.1 µM): 109% and 106% and 112%
viability, T/C (compound 0.316 µM): 95.9% and 108% and 103%
viability, T/C (compound 1 µM): 105% and 114% and 101%
viability, T/C (compound 3.16 µM): 100% and 99.6% and 95.5%
viability, T/C (compound 10 µM): 74.3% and 73.2% and 69%
IC50 (curve of compound): > 10 µM
